Experimental findings from patent US20130053357A1, “SKIN IRRITATION SUPPRESSANT AND TRANSDERMAL PREPARATION” (HISAMITSU PHARMACEUTICAL CO., INC., priority 2010, published 2013) are described below.

SMILES strings stand for the structures. Where two headings read alike, the source gives them in different places.

The test system of assay [1] is human three-dimensional culture epidermal model (LabCyte EPI-MODEL). The assay is described as follows: Production of skin irritation mediators induced by PMA in human three-dimensional epidermal culture model (Experiment 1). In kind it is cell-based. The note with it: for activity at 1 % / activity at 0.01 % / activity at 0.1 %: Homo sapiens, 48 hours; for activity at 1 %: test substance 1 mass % with PMA in olive oil; for Effect on skin irritation mediator production by PMA (in words): summary of Table 1; for activity at 0.01 %: test substance 0.01 mass % with PMA in olive oil; for activity at 0.1 %: test substance 0.1 mass % with PMA in olive oil. An excerpt: Changes in production amounts of skin irritation mediators by test substances were examined when cutaneous irritants were caused to act on a human three-dimensional culture epidermal model.
A human three-dimensional epidermal culture model obtained by multilayer-culturing a human normal epidermal cell (LabCyte EPI-MODEL, manufactured by Japan Tissue Engineering Co., Ltd.) was used. LabCyte is a cultured skin cultured in a transwell. For the experiment, LabCyte was used with the transwell.
As test substances, there were used cholesterol (manufactured by Wako Pure Chemical Industries, Ltd.), β-sitosterol (manufactured by TAMA BIOCHEMICAL CO., LTD.), α-spinasterol (manufactured by ChromaDex, Inc.), ergosterol (manufactured by Wako Pure Chemical Industries, Ltd.), campesterol (manufactured by TAMA BIOCHEMICAL CO., LTD.), glycyrrhizin (manufactured by Wako Pure Chemical Industries, Ltd.), glycyrrhetinic acid (manufactured by Wako Pure Chemical Industries, Ltd.), ginsenoside (manufactured by Wako Pure Chemical Industries, Ltd.), squalene (manufactured by Wako Pure Chemical Industries, Ltd.), squalane (manufactured by Tokyo Chemical Industry Co., Ltd.) and lanosterol (manufactured by ChromaDex, Inc.), which are candidates of a skin irritation suppressant.
As skin irritants, Phorbol 12-Myristate 13-Acetate (PMA, manufactured by Wako Pure Chemical Industries, Ltd.) was used. In addition, as vehicle, olive oil (manufactured by Wako Pure Chemical Industries, Ltd.) was used.
Experiments were conducted by the following group composition. • PMA Only Group: A group with addition of only 0.00001 mol of PMA dispersed in a vehicle, as a test solution. • Test Substance Group: A group with addition of 0.00001 mol of PMA and the test substance which were dispersed in a vehicle, as a test solution.
The experiment was conducted as below. First, LabCyte was put into a 24-well assay plate. Then, 1 ml of assay medium (Japan Tissue Engineering Co., Ltd.) was added so that it was brought into contact with a bottom surface of the cultured skin in each well of the 24-well assay plate, and was pre-cultured in an incubator with 5% of carbon dioxide concentration at 37° C. for 1 hour.
Next, a cell survival rate was measured by the MTT method after causing the test solutions of each group to act. Specifically, 50 μL of the test solution of each group was added to the surface of the LabCyte after preculture, was cultured in the incubator with 5% of carbon dioxide concentration at 37° C. for 48 hours, then was transferred to the assay medium comprising 0.5 mg/ml of MTT reagent, and was cultured in the incubator with 5% of carbon oxide level at 37° C. for 3 hours. Then, LabCyte was immersed in 0.3 ml of an isopropanol solution, and the produced blue-purple formazan was extracted for 2 hours. After extraction, an absorbance at 570 nm was measured by a 96 microplate reader. The cell survival rate was calculated as below.
Cell survival rate (%)=(absorbance of Test Substance Group)/(absorbance of PMA Only Group)×100
Subsequently, a production amount of the skin irritation mediator at a test substance concentration with 80% or more of cell survival rate was measured. As skin irritation mediators, PGE2, IL-1α, IL-6, IL-8 were measured.
The test solutions of each group were added to the cells, the culture solutions incubated for 48 hours were collected, and a production amount of each skin irritation mediator was measured. The skin irritation mediator was measured by using a commercially available ELISA kit (manufactured by R&D Systems, Inc.). A relative production amount of the skin irritation mediator in each test substance was calculated as below, when the production amount of the skin irritation mediator in the PMA Only Group was set to 100.
Relative production amount=(production amount of the mediator in Test Substance Group)/(production amount of the mediator in PMA Only Group)×100

For assay [2], the system named is croton oil-induced mouse ear swelling. The experiment in a line: Suppression of croton oil-induced mouse ear swelling reaction (Experiment 3). The settings on record: for Inhibition Ratio Of Ear Swelling: ddY female mouse, 1% by mass of test substance in 2% croton oil solution, 25 μL on ears, auricular thickness 6 hours after; for Effect on croton oil-induced mouse ear swelling reaction (in words): summary of Table 3. In kind it is in vivo. An excerpt:
<Suppression of Croton Oil-Induced Mouse Ear Swelling Reaction by the Test Substances>
Suppression of mouse ear swelling was examined through the use of croton oil (Wako Pure Chemical Industries, Ltd.) as a swelling inducer. A 7-week-old ddY female mouse (SPF) was subjected to an experiment. As test substances, cholesterol, glycyrrhizin, glycyrrhetinic acid, squalene, ergosterol, squalane and lanosterol were used. As a vehicle, acetone (Wako Pure Chemical Industries, Ltd.) was used.
Experiments were conducted by the following group composition. • Positive Control Group: A group which received only the vehicle as a primary test solution, and one hour after, received a 2% croton oil solution as a secondary test solution. • Test Substance Group: A group in which only the vehicle was administered as a primary test solution, and one hour after, a 2% croton oil solution including 1% by mass of test substance was administered as a secondary test solution.
An inhibition ratio of ear swelling was calculated as below. In this test, a […] inflammation model is used to examine immediate swelling reactions. In accordance with the group composition, 25 μL of the primary test solution was uniformly coated on back sides of both ears in an etherize mouse, and one hour after, 25 μL of the secondary test solution was uniformly coated in accordance with the group composition. Prior to coating of the secondary test solution, a thickness of auricle was measured by DIAL […] GAUGE (OZAKI MFG CO., LTD.). Furthermore, the secondary test solution was administered, and 6 hours after, the auricular thickness was measured in the same way as mentioned above, and an increased amount of the auricular thickness was set by deducting the thickness measured prior to administration of the secondary test solution. The inhibition ratio of ear swelling was calculated as below.
Inhibition ratio of ear swelling (%)=(increased amount of auricular thickness in Test Substance Group−increased amount of auricular thickness in Negative Control Group)/(increased amount of auricular thickness in Positive Control Group−increased amount of auricular thickness in Negative Control Group)×100

Where [3] appears, read: read-out: Relative Production Amount of Skin Irritation Mediator when Production Amount in PMA Only Group is Set to 100: IL-1α.
The mark [4] stands for this setting: read-out: Relative Production Amount of Skin Irritation Mediator when Production Amount in PMA Only Group is Set to 100: IL-6.
Setting [5] is: read-out: Relative Production Amount of Skin Irritation Mediator when Production Amount in PMA Only Group is Set to 100: IL-8.
[6] abbreviates: read-out: Relative Production Amount of Skin Irritation Mediator when Production Amount in PMA Only Group is Set to 100: PGE2.

For `CC(C)[C@@H](C)/C=C/[C@@H](C)[C@H]1CC[C@H]2C3=CC=C4C[C@@H](O)CC[C@]4(C)[C@H]3CC[C@]12C` [Ergosterol, ergosterol], the activity at 1 % amounted to 71% in assay [1] (setting [3]), 81% in assay [1] (setting [4]), 111% in assay [1] (setting [5]) and 20% in assay [1] (setting [6]). Besides, the “Effect on skin irritation mediator production by PMA (in words)” value (“Effect … by PMA (in words)” for short) in assay [1] was “exhibited effects of suppressing the skin irritation mediator production by PMA”. Further, in assay [2], the “Inhibition Ratio Of Ear Swelling” value is recorded as 38.1%. The “Effect on croton oil-induced mouse ear swelling reaction (in words)” value in assay [2] is on record as “suppress croton oil-induced mouse ear swelling reaction”.

With `CC1(C)[C@@H](O)CC[C@]2(C)[C@H]3C(=O)C=C4[C@@H]5C[C@@](C)(C(=O)O)CC[C@]5(C)CC[C@@]4(C)[C@]3(C)CC[C@@H]12` [Glycyrrhetinic Acid, glycyrrhetinic acid], the activity at 0.01 % was determined as 77% in assay [1] (setting [3]), 46% in assay [1] (setting [4]), 81% in assay [1] (setting [5]) and 48% in assay [1] (setting [6]). Further, in assay [1], the “Effect … by PMA (in words)” value was “exhibited effects of suppressing the skin irritation mediator production by PMA”. For the same molecule, the “Inhibition Ratio Of Ear Swelling” value in assay [2] is listed as 53.4%. Moreover, the “Effect on croton oil-induced mouse ear swelling reaction (in words)” value in assay [2] is “suppress croton oil-induced mouse ear swelling reaction”.

For the molecule `CC1(C)[C@@H](O[C@H]2O[C@H](C(=O)O)[C@@H](O)[C@H](O)[C@H]2O[C@@H]2O[C@H](C(=O)O)[C@@H](O)[C@H](O)[C@H]2O)CC[C@]2(C)[C@H]3C(=O)C=C4[C@@H]5C[C@@](C)(C(=O)O)CC[C@]5(C)CC[C@@]4(C)[C@]3(C)CC[C@@H]12` [Glycyrrhizin, glycyrrhizin], the activity at 0.01 % in assay [1] (setting [3]) came to 85%; in assay [1] (setting [4]), 105%; in assay [1] (setting [5]), 154%; in assay [1] (setting [6]), 114%. Also, in assay [1], the “Effect … by PMA (in words)” value is “exhibited effects of suppressing the skin irritation mediator production by PMA”. Besides, in assay [2], the “Inhibition Ratio Of Ear Swelling” value was determined as 34.1%. Besides, the “Effect on croton oil-induced mouse ear swelling reaction (in words)” value in assay [2] was “suppress croton oil-induced mouse ear swelling reaction”.

As for `CC(C)=CCC[C@@H](C)[C@H]1CC[C@@]2(C)C3=C(CC[C@]12C)[C@@]1(C)CC[C@H](O)C(C)(C)[C@@H]1CC3` [Lanosterol, lanosterol], the activity at 1 % in assay [1] (setting [3]) is 76%; in assay [1] (setting [4]), 90%; in assay [1] (setting [5]), 73%; in assay [1] (setting [6]) it was 47%. Also, the “Effect … by PMA (in words)” value in assay [1] is recorded as “exhibited effects of suppressing the skin irritation mediator production by PMA”. In assay [2], the “Inhibition Ratio Of Ear Swelling” value is 65.9%. For the same molecule, the “Effect on croton oil-induced mouse ear swelling reaction (in words)” value in assay [2] is given as “suppress croton oil-induced mouse ear swelling reaction”.

Take `CC(C)CCCC(C)CCCC(C)CCCCC(C)CCCC(C)CCCC(C)C` (stereo not drawn) [Squalane, squalane]: the activity at 0.1 % in assay [1] (setting [3]) came to 18%; in assay [1] (setting [4]) it was 55%; in assay [1] (setting [5]) it was 39%; in assay [1] (setting [6]), 41%. In addition, the “Effect … by PMA (in words)” value in assay [1] was “exhibited effects of suppressing the skin irritation mediator production by PMA”. Moreover, the “Inhibition Ratio Of Ear Swelling” value in assay [2] is on record as 61.6%. In addition, in assay [2], the “Effect on croton oil-induced mouse ear swelling reaction (in words)” value was “suppress croton oil-induced mouse ear swelling reaction”.

On to `CC(C)=CCC/C(C)=C/CC/C(C)=C/CC/C=C(\C)CC/C=C(\C)CCC=C(C)C` [Squalene, squalene], for which the activity at 0.01 % in assay [1] (setting [3]) came to 10%; in assay [1] (setting [4]), 0%; in assay [1] (setting [5]) it was 131%; in assay [1] (setting [6]) it was 88%. In addition, the “Effect … by PMA (in words)” value in assay [1] is recorded as “exhibited effects of suppressing the skin irritation mediator production by PMA”. The “Inhibition Ratio Of Ear Swelling” value in assay [2] came to 44.4%. Moreover, the “Effect on croton oil-induced mouse ear swelling reaction (in words)” value in assay [2] was “suppress croton oil-induced mouse ear swelling reaction”.
